Measured values from ChEMBL document CHEMBL1148109, “Nobiloside, a new neuraminidase inhibitory triterpenoidal saponin from the marine sponge Erylus nobilis” (J Nat Prod, 2002).
Activity calls are given as the source filed them. The calls are words filed in the database; no cut-off is given here.

Experiments:
[1] = molecular target: T1, Sialidase (Clostridium perfringens) (UniProt P10481); experiment: Inhibition of Clostridium perfringens neuraminidase at 100 ug/mL
T1 sequence (whole entry): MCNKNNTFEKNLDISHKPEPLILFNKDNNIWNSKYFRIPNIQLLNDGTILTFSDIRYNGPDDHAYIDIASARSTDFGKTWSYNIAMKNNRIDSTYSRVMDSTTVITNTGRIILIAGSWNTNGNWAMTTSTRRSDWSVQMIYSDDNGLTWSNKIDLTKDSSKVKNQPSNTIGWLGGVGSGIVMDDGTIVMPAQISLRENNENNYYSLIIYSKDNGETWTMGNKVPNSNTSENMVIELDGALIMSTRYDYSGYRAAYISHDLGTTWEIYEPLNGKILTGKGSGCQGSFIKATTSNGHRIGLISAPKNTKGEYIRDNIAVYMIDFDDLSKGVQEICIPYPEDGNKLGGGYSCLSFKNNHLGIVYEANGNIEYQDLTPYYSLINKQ

Sialidase = molecular target: T2, Sialidase (Clostridium perfringens, UniProt P10481); experiment: Inhibition of Clostridium perfringens neuraminidase
T2 sequence (P10481 whole entry): T1 sequence (whole entry)

SMILES | Activity [1] | IC50 (Sialidase)
COC(=O)[C@H]1O[C@@H](O[C@H]2[C@H](O)[C@@H](O)[C@H](O[C@H]3CC[C@]4(C)C5=C(CC[C@H]4C3(C)C)[C@]3(C(=O)OC)CC[C@H]([C@H](C)CCC=C(C)C)[C@@]3(C)CC5)O[C@@H]2C(=O)OC)[C@H](O)[C@@H](O[C@@H]2OC[C@H](O)[C@H](O)[C@H]2O)[C@H]1O | inactive | 
CC(C)=CCC[C@@H](C)[C@H]1CC[C@@]2(C(=O)O)C3=C(CC[C@]12C)[C@@]1(C)CC[C@H](O[C@@H]2O[C@H](C(=O)O)[C@@H](O[C@@H]4O[C@H](C(=O)O)[C@H](O)[C@H](O[C@@H]5OC[C@H](O)[C@H](O)[C@H]5O)[C@H]4O)[C@H](O)[C@H]2O)C(C)(C)[C@@H]1CC3 [NOBILOSIDE] |  | 489 nM
